# From patent US9650390B2, “Water-soluble taxane derivatives and uses thereof” (priority 2014, dated 2017)
# Legend:
# [1] = In vivo metabolic test of the water soluble paclitaxel derivatives in rats; conditions: SD rats, 5 mg/kg intravenous, 5 min after administration, LC-MS
# Experimental: After 5 min of administration, 0.3 ml of venous blood was taken from the retrobulbar venous plexus of the rats, placed in heparinized tubes, and centrifuged at 11.000 rpm for 5 min. Blood plasma was separated, and the concentrations of the compounds in the blood plasma were determined by liquid chromatography-mass spectrometry.
# [2] = In vitro dissociation in blood plasma of rabbit; assay type: in vitro ADME, New Zealand white rabbits; conditions: fresh New Zealand white rabbit plasma, 37° C.
# Experimental: The obtained water soluble taxane derivatives of the following formulae were formulated as 0.2 mg/ml aqueous solutions. […]
# [3] = In vitro dissociation in blood plasma of rat; assay type: in vitro ADME, SD rats; conditions: fresh SD rat plasma, 37° C.; for Sampling time/Dissociation percent (%) 2 min: 2 min incubation; for Sampling time/Dissociation percent (%) 5 min: 5 min incubation; for Sampling time/Dissociation percent (%) 10 min: 10 min incubation
# Experimental: The obtained water soluble taxane derivatives of the following formulae were formulated as 0.2 mg/ml aqueous solutions. […] After 2 min, 5 min and 10 min of incubation, 0.2 ml of solutions were respectively taken from each of the samples, and added to acetonitrile (0.4 ml) cooled to −20° C. for precipitation of protein.
# [4] = physiological saline
# [5] = system: human ovarian cancer SK-OV-3; conditions: 16 mg/kg, D0-4 IV
# From the text: Purpose: to evaluate and compare the inhibitory activity of the water soluble paclitaxel derivatives, paclitaxel and Abraxane® on subcutaneously xenografted tumor of human ovarian cancer SK-OV-3 in nude mice.
# Human ovarian cancer SK-OV-3 cells were subcutaneously inoculated to nude mice. After the tumor volume reached 100-150 mm^3, the animals were randomly divided into groups (D0), and administered with the water soluble paclitaxel derivatives of the following formula, paclitaxel, and Abraxane®, respectively once per day for 5 days. The tumor volume was measured 2-3 times per week, the animals were weighed and the data were recorded until day 22 (D22) after grouping.
# The tumor volume (V) was calculated according to the equation: V=½×a×b^2, wherein a and b represent the length and the width, respectively.
# T/C (%)=(T−T0)/(C−C0)×100, wherein T and C represent the tumor volume at the end of the experiment, and T0 and C0 represent the tumor volume at the beginning of the experiment.
# [6] = D22, SK-OV-3 xenograft in nude mice
Structure (SMILES),detection of the administered compound in the blood plasma [1],mean concentration of paclitaxel in the blood plasma [1] [ng/mL],Sampling time/Dissociation percent (%) 2 min [2] [%],Sampling time/Dissociation percent (%) 5 min [2] [%],Sampling time/Dissociation percent (%) 10 min [2] [%],Sampling time/Dissociation percent (%) 2 min [3] [%],Sampling time/Dissociation percent (%) 5 min [3] [%],Sampling time/Dissociation percent (%) 10 min [3] [%],Solubility [4] [µg/mL],"Body weight change (%) D4 ([5]; D4, nude mice) [%]","T/C (%) D22 [5, 6] [%]","Tumor volume (mm^3) (D22) [5, 6]","Tumor inhibitory percent (%) D22 ([5]; D22, SK-OV-3 xenograft in nude mice, P = 0.000 vs control) [%]","Tumor volume (mm^3) (D0) ([5]; baseline at grouping (D0), SK-OV-3 xenograft in nude mice)"
"CC(=O)O[C@H]1C(=O)[C@@]2(C)[C@H]([C@H](OC(=O)c3ccccc3)[C@]3(O)C[C@H](OC(=O)[C@H](OC(=O)C(F)CCN(C)C)[C@@H](NC(=O)c4ccccc4)c4ccccc4)C(C)=C1C3(C)C)[C@]1(OC(C)=O)CO[C@@H]1C[C@@H]2O.Cl (stereo partly drawn) [Compound 03, 2′-O-[4-N,N-dimethylamino-2(R,S)-fluorobutyryl]paclitaxel hydrochloride]",cannot be detected,1825,75.7,93.5,100,61.8,93.1,100,–,–,–,–,–,–
"CC(=O)OC1C(=O)C23CC2CC2OCC2(OC(C)=O)C3C(OC(=O)c2ccccc2)C2(O)CC(OC(=O)C(OC(=O)C(F)CC(C)N(C)C)C(NC(=O)OC(C)(C)C)c3ccccc3)C(C)=C1C2(C)C.CS(=O)(=O)O [Compound 16, 2′-O-[4-N,N-dimethylamino-2(R)-fluorovaleryl]larotaxel methanesulfonate]",–,–,63.2,94.1,100,60.2,92.1,100,11100,–,–,–,–,–
"CC(=O)OC12COC1CCC1(C)C3OC(CN(C)C)OC3C3=C(C)C(OC(=O)C(OC(=O)C(F)CC(C)N(C)C)C(NC(=O)OC(C)(C)C)c4ncccc4F)CC(O)(C(OC(=O)c4ccccc4)C12)C3(C)C.CS(=O)(=O)O [Compound 17, 2′-O-[4-N,N-dimethylamino-2(R)-fluorovaleryl]tesetaxel methanesulfonate]",–,–,62.7,93.4,100,59.3,93.5,100,12300,–,–,–,–,–
"CCN(C)C(C)C[C@H](C(=O)O[C@@H](C(=O)O[C@H]1C[C@@]2(O)[C@@H](OC(=O)c3ccccc3)[C@@H]3[C@]4(OC(C)=O)CO[C@@H]4C[C@H](O)[C@@]3(C)C(=O)[C@H](O)C(=C1C)C2(C)C)[C@@H](NC(=O)OC(C)(C)C)c1ccccc1)C(C)(F)F.CS(=O)(=O)O (stereo partly drawn) [Compound C12, 2′-O-[4-N-methyl-N-ethylamino-2(R)-2-difluoroethylvaleryl]docetaxel methanesulfonate]",–,–,44.6,72.1,89.6,42.8,74.8,88.4,11300,–,–,–,–,–
"CC(=O)O[C@@]12CO[C@@H]1C[C@H](O)[C@@]1(C)C(=O)[C@H](O)C3=C(C)[C@@H](OC(=O)[C@H](OC(=O)[C@H](F)CC(C)N(C)C)[C@@H](NC(=O)OC(C)(C)C)c4ccccc4)C[C@@](O)([C@@H](OC(=O)c4ccccc4)[C@H]21)C3(C)C.Cl (stereo partly drawn) [Compound C13, 2′-O-[4-N,N-dimethylamino-2(R)-fluorovaleryl]docetaxel hydrochloride]",–,–,46.2,78.9,93.4,44.8,84.8,92.7,2300,–,–,–,–,–
"CC(=O)O[C@H]1C(=O)[C@]23C[C@H]2C[C@H]2OC[C@@]2(OC(C)=O)[C@H]3[C@H](OC(=O)c2ccccc2)[C@]2(O)C[C@H](OC(=O)[C@H](OC(=O)[C@H](F)CC(C)N(C)C)[C@@H](NC(=O)OC(C)(C)C)c3ccccc3)C(C)=C1C2(C)C.Cl (stereo partly drawn) [Compound C16, 2′-O-[4-N,N-dimethylamino-2(R)-fluorovaleryl]larotaxel hydrochloride]",–,–,68.2,94.4,100,61.1,93.8,100,800,–,–,–,–,–
"CC(=O)O[C@@]12CO[C@@H]1CC[C@@]1(C)[C@@H]3O[C@H](CN(C)C)O[C@@H]3C3=C(C)[C@@H](OC(=O)[C@H](OC(=O)[C@H](F)CC(C)N(C)C)[C@@H](NC(=O)OC(C)(C)C)c4ncccc4F)C[C@@](O)([C@@H](OC(=O)c4ccccc4)[C@@H]12)C3(C)C.Cl (stereo partly drawn) [Compound C17, 2′-O-[4-N,N-dimethylamino-2(R)-fluorovaleryl]tesetaxel hydrochloride]",–,–,69.7,96.8,100,60.7,95.5,100,1000,–,–,–,–,–
"CC(=O)O[C@H]1C(=O)[C@@]2(C)[C@H]([C@H](OC(=O)c3ccccc3)[C@]3(O)C[C@H](OC(=O)[C@H](O)[C@@H](NC(=O)c4ccccc4)c4ccccc4)C(C)=C1C3(C)C)[C@]1(OC(C)=O)CO[C@@H]1C[C@@H]2O [paclitaxel, reference compound]",–,1793,–,–,–,–,–,–,–,−4.8,−60,53.7 ± 11.2,160,134.6 ± 19.7
